Eight molecules from ChEMBL document CHEMBL1128113, “A novel series of arylpiperazines with high affinity and selectivity for the dopamine D3 receptor” (Bioorg Med Chem Lett, 1995) can be followed below.

Bounds are passed on as bounds.

Assay [1] addresses D(3) dopamine receptor (Homo sapiens, UniProt P35462). Put plainly: biochemical.
In assay [2] the target is T1, Adrenergic receptor alpha-1 (Rattus norvegicus, UniProt P15823+P23944+P43140).
T1 sequence (P15823 whole entry): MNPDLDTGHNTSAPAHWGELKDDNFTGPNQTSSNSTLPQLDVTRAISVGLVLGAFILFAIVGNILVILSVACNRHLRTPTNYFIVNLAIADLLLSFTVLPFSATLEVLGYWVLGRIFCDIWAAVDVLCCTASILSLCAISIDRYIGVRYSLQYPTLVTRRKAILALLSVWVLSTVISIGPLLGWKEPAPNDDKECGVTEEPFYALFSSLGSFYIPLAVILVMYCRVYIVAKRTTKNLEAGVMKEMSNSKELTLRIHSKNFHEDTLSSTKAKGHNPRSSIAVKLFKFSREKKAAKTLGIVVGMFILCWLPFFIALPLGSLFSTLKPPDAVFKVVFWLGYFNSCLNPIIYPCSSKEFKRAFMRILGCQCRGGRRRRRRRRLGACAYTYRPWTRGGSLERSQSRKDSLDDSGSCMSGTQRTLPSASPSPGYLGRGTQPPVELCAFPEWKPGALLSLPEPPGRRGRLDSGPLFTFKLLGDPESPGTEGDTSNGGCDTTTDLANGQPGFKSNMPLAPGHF
T1 sequence (P23944 whole entry): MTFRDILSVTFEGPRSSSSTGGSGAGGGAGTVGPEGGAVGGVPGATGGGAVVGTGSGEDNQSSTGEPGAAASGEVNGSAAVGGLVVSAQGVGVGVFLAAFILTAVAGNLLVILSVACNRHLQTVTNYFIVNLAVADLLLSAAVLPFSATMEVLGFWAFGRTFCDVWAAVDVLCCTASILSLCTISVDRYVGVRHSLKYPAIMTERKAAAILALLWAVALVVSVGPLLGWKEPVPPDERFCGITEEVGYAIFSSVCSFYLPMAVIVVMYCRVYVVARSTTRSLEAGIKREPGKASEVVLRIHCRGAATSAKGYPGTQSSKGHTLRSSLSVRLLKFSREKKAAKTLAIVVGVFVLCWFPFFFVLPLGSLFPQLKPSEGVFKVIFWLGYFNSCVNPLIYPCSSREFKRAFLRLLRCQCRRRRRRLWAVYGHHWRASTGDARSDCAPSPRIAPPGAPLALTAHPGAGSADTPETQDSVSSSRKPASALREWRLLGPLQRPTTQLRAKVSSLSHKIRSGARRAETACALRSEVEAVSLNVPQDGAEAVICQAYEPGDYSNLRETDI
T1 sequence (P43140 whole entry): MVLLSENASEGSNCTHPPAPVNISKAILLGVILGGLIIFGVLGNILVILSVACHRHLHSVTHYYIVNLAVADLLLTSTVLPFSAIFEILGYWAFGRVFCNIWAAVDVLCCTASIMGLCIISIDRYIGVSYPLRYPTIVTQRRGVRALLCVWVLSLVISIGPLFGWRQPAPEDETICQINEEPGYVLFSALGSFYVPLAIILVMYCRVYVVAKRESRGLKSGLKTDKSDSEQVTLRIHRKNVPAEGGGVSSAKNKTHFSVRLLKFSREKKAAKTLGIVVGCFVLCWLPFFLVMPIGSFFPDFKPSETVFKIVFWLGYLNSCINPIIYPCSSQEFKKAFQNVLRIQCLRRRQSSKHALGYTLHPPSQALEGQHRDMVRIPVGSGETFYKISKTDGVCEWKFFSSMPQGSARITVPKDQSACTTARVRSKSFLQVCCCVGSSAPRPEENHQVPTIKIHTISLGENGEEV
Put plainly: Compound was evaluated for binding affinity towards Alpha-1 adrenergic receptor using [3H]prazosin in rat heart.

Assay [3] concerns the target T2, 5-hydroxytryptamine receptor 1A (Rattus norvegicus, UniProt P19327).
T2 sequence (P19327 whole entry): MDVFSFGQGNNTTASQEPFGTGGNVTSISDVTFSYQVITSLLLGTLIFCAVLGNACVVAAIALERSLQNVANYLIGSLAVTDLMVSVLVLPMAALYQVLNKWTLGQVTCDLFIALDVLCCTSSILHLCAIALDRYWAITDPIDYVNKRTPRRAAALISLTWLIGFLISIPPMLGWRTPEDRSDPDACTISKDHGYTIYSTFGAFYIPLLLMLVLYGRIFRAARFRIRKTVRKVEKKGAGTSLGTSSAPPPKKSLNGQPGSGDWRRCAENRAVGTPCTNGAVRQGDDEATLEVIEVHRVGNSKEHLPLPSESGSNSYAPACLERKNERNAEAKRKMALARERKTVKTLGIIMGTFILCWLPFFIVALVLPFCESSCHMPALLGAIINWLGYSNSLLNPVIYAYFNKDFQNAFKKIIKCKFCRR
Put plainly: Binding affinity towards 5-hydroxytryptamine 1A receptor using [3H]8-OH-DPAT in rat hippocampus. Format: tissue-based.

The target in assay [4] is D(2) dopamine receptor (Homo sapiens, UniProt P14416).
Chain of D(2) dopamine receptor (P14416 whole entry, the tested form may be a part): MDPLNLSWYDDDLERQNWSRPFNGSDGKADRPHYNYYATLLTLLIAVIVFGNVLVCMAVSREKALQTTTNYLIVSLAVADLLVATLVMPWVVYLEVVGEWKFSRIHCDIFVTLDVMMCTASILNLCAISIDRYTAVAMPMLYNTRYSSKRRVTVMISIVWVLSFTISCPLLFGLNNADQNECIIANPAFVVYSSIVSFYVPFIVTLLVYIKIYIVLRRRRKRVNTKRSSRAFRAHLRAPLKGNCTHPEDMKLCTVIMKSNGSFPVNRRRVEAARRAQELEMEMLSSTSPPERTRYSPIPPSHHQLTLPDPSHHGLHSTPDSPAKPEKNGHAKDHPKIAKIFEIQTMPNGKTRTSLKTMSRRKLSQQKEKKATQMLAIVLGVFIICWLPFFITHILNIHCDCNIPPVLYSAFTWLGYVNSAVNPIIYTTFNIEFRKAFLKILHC
In assay [5] the test system is Rattus norvegicus. Put plainly: Selectivity for mesolimbic over nigrostriatal dopamine system in rat brain as ventral tegmental area infusion of muscimol induced locomotor activity (LMA) by sc dose. Format: functional.
Assay [6] has as its system Rattus norvegicus. Put plainly: Selectivity for mesolimbic over nigrostriatal dopamine system in rat brain as substania nigra zona reticulata infusion of muscimol-induced locomotor activity (LMA) by sc dose. Format: functional.
The target of assay [7] is T3, D(4) dopamine receptor (Homo sapiens, UniProt P21917).
T3 sequence (P21917 whole entry): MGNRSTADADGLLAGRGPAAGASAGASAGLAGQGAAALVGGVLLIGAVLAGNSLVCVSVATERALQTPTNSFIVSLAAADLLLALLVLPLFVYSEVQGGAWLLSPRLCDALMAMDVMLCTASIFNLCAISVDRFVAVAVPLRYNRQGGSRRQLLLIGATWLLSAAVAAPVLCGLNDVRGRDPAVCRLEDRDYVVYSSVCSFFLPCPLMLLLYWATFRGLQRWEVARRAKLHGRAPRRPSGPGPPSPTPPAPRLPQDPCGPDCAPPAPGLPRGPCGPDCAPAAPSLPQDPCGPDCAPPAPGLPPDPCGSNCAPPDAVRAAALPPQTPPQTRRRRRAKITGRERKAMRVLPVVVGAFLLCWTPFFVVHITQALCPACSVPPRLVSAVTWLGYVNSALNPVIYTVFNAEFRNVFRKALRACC
Put plainly: Binding affinity towards Dopamine D4 receptor.

Assay [8] addresses Adrenergic receptor alpha-1 (Homo sapiens) (UniProt P35348+P25100+P35368). Put plainly: Binding affinity towards Alpha-1 adrenergic receptor. Format: protein assay.
Assay [9] addresses D(1A) dopamine receptor (Rattus norvegicus, UniProt P18901). Put plainly: Binding affinity towards D1 receptor using [3H]-SCH- 23390 in rat striatal tissue. Format: tissue-based, Striatum.
Assay [10] concerns the target T1, Adrenergic receptor alpha-1. Put plainly: Binding affinity towards Alpha-1 adrenergic receptor using [3H]prazosin in rat heart.
Assay [11] has as its target 5-hydroxytryptamine receptor 2A (Bos taurus) (UniProt Q75Z89). Put plainly: Binding affinity towards 5-hydroxytryptamine 2 receptor.
Assay [12] addresses Serotonin 3 (5-HT3) receptor. Put plainly: Binding affinity towards 5-hydroxytryptamine 3 receptor. Format: protein-complex assay.
Assay [13] deals with T3, D(4) dopamine receptor. Put plainly: Binding affinity towards Chinese hamster ovary cells transfected with human D4 receptor using [3H]spiperone. Format: cell-based.

Chain of D(3) dopamine receptor (P35462 whole entry): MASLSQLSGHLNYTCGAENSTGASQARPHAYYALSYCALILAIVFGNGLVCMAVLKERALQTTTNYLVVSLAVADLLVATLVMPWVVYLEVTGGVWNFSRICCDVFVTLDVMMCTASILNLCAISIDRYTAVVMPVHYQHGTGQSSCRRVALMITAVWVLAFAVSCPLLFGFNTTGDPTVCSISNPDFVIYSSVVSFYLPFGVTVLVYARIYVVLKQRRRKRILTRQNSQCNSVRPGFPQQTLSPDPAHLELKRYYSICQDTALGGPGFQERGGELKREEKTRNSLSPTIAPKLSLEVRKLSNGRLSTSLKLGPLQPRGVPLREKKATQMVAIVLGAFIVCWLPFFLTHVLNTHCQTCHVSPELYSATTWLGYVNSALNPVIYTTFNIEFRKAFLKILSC
Chain of D(1A) dopamine receptor (P18901 whole entry): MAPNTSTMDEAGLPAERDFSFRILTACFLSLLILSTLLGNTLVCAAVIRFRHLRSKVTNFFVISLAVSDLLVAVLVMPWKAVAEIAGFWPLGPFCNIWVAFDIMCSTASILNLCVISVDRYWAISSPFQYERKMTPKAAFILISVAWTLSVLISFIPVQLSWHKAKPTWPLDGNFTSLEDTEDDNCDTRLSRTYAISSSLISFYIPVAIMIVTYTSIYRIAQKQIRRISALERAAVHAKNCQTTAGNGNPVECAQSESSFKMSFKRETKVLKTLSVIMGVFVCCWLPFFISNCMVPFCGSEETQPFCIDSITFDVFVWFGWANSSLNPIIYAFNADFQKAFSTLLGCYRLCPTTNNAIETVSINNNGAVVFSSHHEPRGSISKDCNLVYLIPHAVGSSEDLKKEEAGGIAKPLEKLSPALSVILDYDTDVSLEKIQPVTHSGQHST
Chain of 5-hydroxytryptamine receptor 2A (Bos taurus) (Q75Z89 whole entry): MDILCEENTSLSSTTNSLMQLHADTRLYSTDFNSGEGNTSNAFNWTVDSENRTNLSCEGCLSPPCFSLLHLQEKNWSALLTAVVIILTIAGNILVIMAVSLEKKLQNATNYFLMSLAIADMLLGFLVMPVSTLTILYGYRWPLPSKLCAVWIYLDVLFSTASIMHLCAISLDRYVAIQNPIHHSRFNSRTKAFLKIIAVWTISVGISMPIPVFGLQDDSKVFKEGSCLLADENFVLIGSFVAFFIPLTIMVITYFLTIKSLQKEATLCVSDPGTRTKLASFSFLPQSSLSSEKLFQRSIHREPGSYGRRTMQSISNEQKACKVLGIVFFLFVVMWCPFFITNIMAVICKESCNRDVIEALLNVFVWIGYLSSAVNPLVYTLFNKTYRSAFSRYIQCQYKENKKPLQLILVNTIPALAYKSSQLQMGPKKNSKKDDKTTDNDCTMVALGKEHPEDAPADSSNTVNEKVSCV

The Ki is a measure of affinity in units of concentration, obtained from inhibition or displacement. A high value points to a looser hold on the target. As for `COc1ccc(OC)c(N2CCN(CCCCNC(=O)c3ccc(Br)cc3)CC2)c1`, the results for the inhibitory constant (Ki) in [1], in assay [3] and in [4] were 3.16 nM, 251 nM and 100 nM, respectively. Besides, in [2], the “Log Ki” value is -7.5.

The term ED50 denotes the dose that gives a 50% effect, or the effect in half of the subjects. Take `CN1CCN(C2=Nc3cc(Cl)ccc3Nc3ccccc32)CC1` [CLOZAPINE]: in [5], the ED50 is 0.002 mg/kg.

With `O=C(CCCN1CCC(O)(c2ccc(Cl)cc2)CC1)c1ccc(F)cc1` [HALOPERIDOL], it took a dose of 0.05 mg/kg to reach the 50% effect level in [6] (ED50).

For orientation: pKB means −log10 of the KB, conventionally taken in molar units. As to `COc1ccccc1N1CCN(CCCCNC(=O)c2ccc(-c3ccc(C(C)=O)cc3)cc2)CC1`, the inhibition constant Ki in assay [7] was 63.1 nM; in assay [1], 0.316 nM; in assay [9] it was 398 nM; in assay [3] it was 3.16 nM; in assay [4] it was 39.8 nM. In addition, the values for the pKB in assay [8] and in [11] were 7.8 and less than 5, respectively. Also, the entries for the “Log Ki” value in assay [10] and in assay [12] were -7.9 and greater than -5, respectively. In addition, the ED50 in [5] was 0.3 mg/kg; in assay [6] it was greater than 10 mg/kg.

For the molecule `COc1ccccc1N1CCN(CCCCNC(=O)c2ccc(-c3ccc(S(C)(=O)=O)cc3)cc2)CC1`, the Ki in [1] was 0.316 nM; in assay [9], 158 nM; in assay [3], 20 nM; in assay [4] it was 25.1 nM. Further, the “Log Ki” value in assay [2] was -7.9.

On to `COc1ccccc1N1CCN(CCCCNC(=O)c2ccc(Br)cc2)CC1`, for which the Ki in [13] is 50.1 nM; in [1] it was 0.501 nM; in [9], 501 nM; in [3], 12.6 nM; in [4] it was 39.8 nM. In addition, the “Log Ki” value in assay [2] is -7.9.

Turning to `O=C(NCCCCN1CCN(c2ccccc2)CC1)c1ccc(Br)cc1`, the figures for the Ki in [1], in [3] and in [4] were 6.31 nM, 126 nM and 398 nM, respectively.

With `COc1ccccc1N1CCN(CCCCNC(=O)c2ccc(-c3ccc(N)cc3)cc2)CC1`, the Ki is 0.2 nM in assay [1], 100 nM in assay [9], 12.6 nM in [3] and 20 nM in [4]. Further, the “Log Ki” value in assay [2] is listed as -8.
